Measurements: publication PMC7418496, “In Kluyveromyces lactis a Pair of Paralogous Isozymes Catalyze the First Committed Step of Leucine Biosynthesis in Either the Mitochondria or the Cytosol” (Frontiers in Microbiology, 2020)
Each block holds one molecule with its values, some of them ahead of it.

Experiments:
KlLeu4BIS [1] = target: T1, KlLeu4BIS (Kluyveromyces lactis, UniProt Q6CQU3); assay: initial velocity kinetics from kinetic global fit, ordered bi-bi; type: biochemical; details: kinetic dissociation constant; varied with α-KIV 0.01–0.25 mM; 50 mM phosphate pH 7.5, 140 mM KCl, 4 mM MgCl2, 30 °C, DTNB; read-out: Kia /
T1 construct: gene KLLA0_D14201g; expressed in E. coli Rosetta 2 (DE3), Ni-NTA purified (tag not described); homodimer
T1 sequence (Q6CQU3 1-583): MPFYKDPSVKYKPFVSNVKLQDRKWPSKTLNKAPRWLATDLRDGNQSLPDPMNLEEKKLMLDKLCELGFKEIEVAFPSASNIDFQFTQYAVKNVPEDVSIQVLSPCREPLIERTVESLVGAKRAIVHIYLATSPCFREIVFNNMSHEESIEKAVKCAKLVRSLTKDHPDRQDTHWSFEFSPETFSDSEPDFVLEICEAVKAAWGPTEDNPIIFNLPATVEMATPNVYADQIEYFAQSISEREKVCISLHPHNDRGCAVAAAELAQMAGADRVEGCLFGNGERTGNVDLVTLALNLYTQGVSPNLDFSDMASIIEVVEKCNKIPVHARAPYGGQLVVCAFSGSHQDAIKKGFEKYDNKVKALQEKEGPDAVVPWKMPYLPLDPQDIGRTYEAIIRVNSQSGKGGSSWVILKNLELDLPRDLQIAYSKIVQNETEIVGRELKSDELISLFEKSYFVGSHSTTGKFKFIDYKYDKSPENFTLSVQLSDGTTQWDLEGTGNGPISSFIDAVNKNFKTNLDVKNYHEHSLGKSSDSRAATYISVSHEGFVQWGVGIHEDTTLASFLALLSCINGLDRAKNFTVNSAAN
Text: initial velocity kinetics from kinetic global fit, ordered bi-bi on KlLeu4BIS

KlLeu4 [2] = target: T2, KlLeu4 (Kluyveromyces lactis, UniProt Q6CIW1); assay: as above; type: biochemical; details: kinetic dissociation constant; varied with α-KIV 0.002–0.08 mM; 50 mM phosphate pH 7.5, 140 mM KCl, 4 mM MgCl2, 30 °C, DTNB; read-out: Kia /
T2 construct: gene KLLA0_F23529g; expressed in E. coli BL21(DE3), Ni-NTA purified (tag not described); homodimer
T2 sequence (Q6CIW1 1-609): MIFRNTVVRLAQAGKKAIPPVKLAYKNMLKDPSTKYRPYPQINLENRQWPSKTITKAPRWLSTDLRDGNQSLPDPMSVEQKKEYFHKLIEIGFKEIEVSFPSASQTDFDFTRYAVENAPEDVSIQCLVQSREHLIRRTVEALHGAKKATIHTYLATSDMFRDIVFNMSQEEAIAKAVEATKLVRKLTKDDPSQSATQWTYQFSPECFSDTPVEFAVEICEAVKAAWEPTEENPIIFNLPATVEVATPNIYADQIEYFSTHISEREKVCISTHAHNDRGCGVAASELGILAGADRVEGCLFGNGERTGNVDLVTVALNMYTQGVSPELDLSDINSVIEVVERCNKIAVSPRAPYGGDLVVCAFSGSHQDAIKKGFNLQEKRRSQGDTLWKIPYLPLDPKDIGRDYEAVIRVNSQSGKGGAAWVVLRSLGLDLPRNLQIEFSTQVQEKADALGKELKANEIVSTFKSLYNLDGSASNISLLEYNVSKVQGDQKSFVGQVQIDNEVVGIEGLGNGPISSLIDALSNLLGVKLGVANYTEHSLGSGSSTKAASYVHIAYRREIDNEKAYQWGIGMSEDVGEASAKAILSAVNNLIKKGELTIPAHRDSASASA
Text: initial velocity kinetics from kinetic global fit, ordered bi-bi on KlLeu4

KlLeu4 [3] = target: T2, KlLeu4; assay: initial velocity inhibition kinetics, global fit; type: biochemical; details: read-out: Kis /
Text: initial velocity inhibition kinetics, global fit on KlLeu4

KlLeu4 [4] = target: T3, KlLeu4 (Kluyveromyces lactis, UniProt Q6CIW1); assay: α-IPMS activity in whole cell extract, DTNB assay […] nm; type: biochemical; details: 0.25 mM acetyl-CoA, 10 mM α-KIV, 50 mM phosphate pH 7.5, 140 mM KCl, 4 mM MgCl2, 30 °C
T3 construct: gene KLLA0_F23529g; native untagged enzyme in whole cell extract of the Klleu4bisΔ single mutant; homodimer

KlLeu4BIS [5] = target: T1, KlLeu4BIS; assay: initial velocity inhibition kinetics, global fit; type: biochemical; details: read-out: Kis /
Text: initial velocity inhibition kinetics, global fit on KlLeu4BIS

KlLeu4BIS [6] = target: T4, KlLeu4BIS (Kluyveromyces lactis, UniProt Q6CQU3); assay: α-IPMS activity in whole cell extract, DTNB assay […] nm; type: biochemical; details: 0.25 mM acetyl-CoA, 10 mM α-KIV, 50 mM phosphate pH 7.5, 140 mM KCl, 4 mM MgCl2, 30 °C
T4 construct: gene KLLA0_D14201g; native untagged enzyme in whole cell extract of the Klleu4Δ single mutant; homodimer

[7] = substrate: CC(=O)SCCNC(=O)CCNC(=O)[C@H](O)C(C)(C)COP(=O)(O)OP(=O)(O)OC[C@H]1O[C@@H](n2cnc3c(N)ncnc32)[C@H](O)[C@@H]1OP(=O)(O)O; assay: initial velocity kinetics, global fit, ordered bi-bi; type: biochemical, Kluyveromyces lactis; details: α-KIV co-varied 0.002–0.08 mM, 50 mM phosphate pH 7.5, 140 mM KCl, 4 mM MgCl2, 30 °C, DTNB
Text: (§1) initial velocity kinetics, global fit, ordered bi-bi on KlLeu4

[8] = substrate: CC(C)C(=O)C(=O)O; assay: as above; type: biochemical, Kluyveromyces lactis; details: acetyl-CoA co-varied 0.002–0.1 mM, 50 mM phosphate pH 7.5, 140 mM KCl, 4 mM MgCl2, 30 °C, DTNB
Text: as §1

[9] = substrate: CC(=O)SCCNC(=O)CCNC(=O)[C@H](O)C(C)(C)COP(=O)(O)OP(=O)(O)OC[C@H]1O[C@@H](n2cnc3c(N)ncnc32)[C@H](O)[C@@H]1OP(=O)(O)O; assay: as above; type: biochemical, Kluyveromyces lactis; details: α-KIV co-varied 0.01–0.25 mM, 50 mM phosphate pH 7.5, 140 mM KCl, 4 mM MgCl2, 30 °C, DTNB
Text: (§2) initial velocity kinetics, global fit, ordered bi-bi on KlLeu4BIS

[10] = substrate: CC(C)C(=O)C(=O)O; assay: as above; type: biochemical, Kluyveromyces lactis; details: acetyl-CoA co-varied 0.008–0.1 mM, 50 mM phosphate pH 7.5, 140 mM KCl, 4 mM MgCl2, 30 °C, DTNB
Text: as §2

- Kd (KlLeu4BIS [1]): 12 ± 7 µM
- Kd (KlLeu4 [2]): 17 ± 5 µM
Molecule: CC(=O)SCCNC(=O)CCNC(=O)[C@H](O)C(C)(C)COP(=O)(O)OP(=O)(O)OC[C@H]1O[C@@H](n2cnc3c(N)ncnc32)[C@H](O)[C@@H]1OP(=O)(O)O [acetyl coenzyme A]

- Ki (KlLeu4 [3]): 34 ± 11 µM
- IC50 (KlLeu4 [4]): 20 µM
- Ki (KlLeu4BIS [5]): 31 ± 8 µM
- IC50 (KlLeu4BIS [6]): 37 µM
Molecule: CC(C)C[C@H](N)C(=O)O [leucine]

B1: KlLeu4 (Kluyveromyces lactis NRRL Y-1140) (protein)
chain: MIFRNTVVRLAQAGKKAIPPVKLAYKNMLKDPSTKYRPYPQINLENRQWPSKTITKAPRWLSTDLRDGNQSLPDPMSVEQKKEYFHKLIEIGFKEIEVSFPSASQTDFDFTRYAVENAPEDVSIQCLVQSREHLIRRTVEALHGAKKATIHTYLATSDMFRDIVFNMSQEEAIAKAVEATKLVRKLTKDDPSQSATQWTYQFSPECFSDTPVEFAVEICEAVKAAWEPTEENPIIFNLPATVEVATPNIYADQIEYFSTHISEREKVCISTHAHNDRGCGVAASELGILAGADRVEGCLFGNGERTGNVDLVTVALNMYTQGVSPELDLSDINSVIEVVERCNKIAVSPRAPYGGDLVVCAFSGSHQDAIKKGFNLQEKRRSQGDTLWKIPYLPLDPKDIGRDYEAVIRVNSQSGKGGAAWVVLRSLGLDLPRNLQIEFSTQVQEKADALGKELKANEIVSTFKSLYNLDGSASNISLLEYNVSKVQGDQKSFVGQVQIDNEVVGIEGLGNGPISSLIDALSNLLGVKLGVANYTEHSLGSGSSTKAASYVHIAYRREIDNEKAYQWGIGMSEDVGEASAKAILSAVNNLIKKGELTIPAHRDSASASA
notes: expressed in E. coli BL21(DE3), Ni-NTA purified (tag not described); homodimer
- Km [7]: 26 ± 3 µM
- Km [8]: 25 ± 3 µM

B2: KlLeu4BIS (Kluyveromyces lactis NRRL Y-1140) (protein)
chain: MPFYKDPSVKYKPFVSNVKLQDRKWPSKTLNKAPRWLATDLRDGNQSLPDPMNLEEKKLMLDKLCELGFKEIEVAFPSASNIDFQFTQYAVKNVPEDVSIQVLSPCREPLIERTVESLVGAKRAIVHIYLATSPCFREIVFNNMSHEESIEKAVKCAKLVRSLTKDHPDRQDTHWSFEFSPETFSDSEPDFVLEICEAVKAAWGPTEDNPIIFNLPATVEMATPNVYADQIEYFAQSISEREKVCISLHPHNDRGCAVAAAELAQMAGADRVEGCLFGNGERTGNVDLVTLALNLYTQGVSPNLDFSDMASIIEVVEKCNKIPVHARAPYGGQLVVCAFSGSHQDAIKKGFEKYDNKVKALQEKEGPDAVVPWKMPYLPLDPQDIGRTYEAIIRVNSQSGKGGSSWVILKNLELDLPRDLQIAYSKIVQNETEIVGRELKSDELISLFEKSYFVGSHSTTGKFKFIDYKYDKSPENFTLSVQLSDGTTQWDLEGTGNGPISSFIDAVNKNFKTNLDVKNYHEHSLGKSSDSRAATYISVSHEGFVQWGVGIHEDTTLASFLALLSCINGLDRAKNFTVNSAAN
notes: expressed in E. coli Rosetta 2 (DE3), Ni-NTA purified (tag not described); homodimer
- Km [9]: 19 ± 5 µM
- Km [10]: 55 ± 13 µM
